From patent US20080009546A1 (Chevron U.S.A. Inc., priority 2005, published 2008)
Like-named read-outs stand apart in the source and are kept apart here. Each block holds one compound with its values, some of them ahead of it.

Assays:
[1] = test system: NMDA receptor; experiment: [3H]MK-801 binding assay, NMDA receptors in guinea pig brain membranes; settings: for Relative affinity: compared to that of Memantine; for Ki: read-out: Ki
Description: Hartley guinea pigs were sacrificed, and their brains were quickly removed and weighed. The brains then were homogenized in 50 mM Tris HCl buffer, pH 7.7, using a Polytron homogenizer. The homogenate was centrifuged at 40,000×g for 15 min, rehomogenized, and centrifuged again. The final pellet was resuspended in Tris-HCl, pH 7.7, at a final concentration of 6.67 mg original wet weight of tissue/ml. […] The samples were then filtered through glass fiber filters on a Tomtec cell harvester. The filters were washed 3 times with 3 ml of cold buffer. Filters were dried overnight and counted next day on a Wallac Betaplate Reader.
The binding experiments were conducted as follows. […] For each compound, graphs were prepared containing individual competition curves obtained for that compound. IC50 values and Hill coefficients were calculated using the program Prism. Ki values were calculated using the Chang Prusoff transformation: Ki=IC50/(1+L/Kd)
where L is radioligand concentration and Kd is the binding affinity of the radioligand, as determined previously by saturation analysis. […] In each experiment, one standard compound was simultaneously run on each 96 well plate.

[2] = test system: NMDA receptor; experiment: Whole-cell voltage-clamp recordings of NMDA evoked currents in hypocretin neurons (hypothalamic slices); type: cell-based, mouse; settings: bath application, -60 mV, mean±SEM
[3] = test system: primary neurons from rat cerebral cortex; experiment: NMDA-induced LDH release assay in primary cortical neurons (neuroprotection); type: cell-based; settings: for EC50: Rattus norvegicus, Primary neuron, two experiments, 300 uM NMDA + 50 μM glycine 15 minutes, LDH after 24 hours, read-out: average EC50 (±SD), NMDA-induced LDH release
Description: The neuroprotective properties of drugs have been studied in vitro, using neurons cultured from cortex, cerebellum or retina. […] Neurotoxicity is determined in this assay by measuring lactate dehydrogenase (LDH), a method which is simple, accurate and reproducible. We conducted pilot studies to test if poly-lysine-coated plates would be suitable as a matrix upon which to plate fetal neurons, compared to astrocyte-coated plates. We also compared the use of growth medium to neurobasal medium supplemented with B27 in the pilot experiments. The concentrations of NMDA (300-500 μM), glycine (10-50 μM), and memantine (10-100 μM) were varied, and optimum concentrations and times determined from these pilot studies were then chosen for the main study. The assay is described below.
Fetal rat neocortical cells were cultured on a mouse astroglial feeder layer. To obtain mouse astroglial cells for the feeder layer, cortices were harvested from 1-day old Swiss Webster mice (Charles River, Hollister, Calif.) according to the procedure described by Rose et al (1993). After dissecting cortices in ice-cold dissecting medium, they were minced and incubated in 0.09% trypsin in media stock for 1 hr, followed by resuspension in growth medium containing 10% equine serum and 10% fetal bovine serum. A single-cell suspension was obtained by triturating through fire-bored glass pipettes, and the resulting cell suspension was plated at a density of 0.5-0.75 hemispheres/24-well plate/9.6 ml, with 0.4 ml/well. Plates were incubated in a humidified incubator at 37° C., 5% CO2. Astroglial cells become confluent in about 2-3 weeks, at which time these cultures are ready to be used as feeder layers upon which neuronal cultures can be plated. Neuronal cells were obtained from gestational Sprague-Dawley rats E16-E18, using a similar dissection procedure. Rat embryos were dissected to obtain cortical tissue, which was plated as a single-cell suspension at a density of 1.4 hemispheres/24-well plate/9.6 ml, with 0.4 ml/well. These cells were plated on the existing astroglial feeder layer, and were incubated at 37° C., 5% CO2. After 5 days in culture, cytosine arabinoside (10 μM) was added to the wells to inhibit glial cell proliferation, and after 24 hours, the medium was replaced with fresh growth medium. Cells were fed with fresh growth medium every 2 days, until the experiments were performed. For coating plates with poly-lysine, we used poly-d-lysine hydrobromide (Sigma Cat # P7280) at a concentration of 0.1 mg/ml to coat each well using a minimum volume of 0.2 ml/well. After coating for 5 minutes, the solution was aspirated and wells were rinsed thoroughly with sterile tissue culture grade water. After drying for 2 hours, plates were ready for use. Neuronal cultures were plated onto poly-lysine-coated plates at the same density as above. For the pilot study, some of the cultures were fed with 1:1 ratio of growth medium: neurobasal medium (GIBCO)+B-27 supplement (2%), while the rest of the cultures were fed with growth medium alone (Losi et al., 2006). For the main study, we used astroglial feeder layers to plate the neuronal cultures, and used a mix (1:1) of growth medium with neurobasal medium+B-27 supplement for feeding the cultures.
After 11-14 days in culture, neuronal cells were confluent and experiments were performed. Cells were washed twice using sterile Locke's buffer (154 mM NaCl, 5.6 mM KCl, 2.3 mM CaCl2, 3.6 mM NaHCO3, 5.5 mM D-glucose, 5 mM HEPES, pH 7.4), and then exposed to the various treatment compounds. […] After 15 minutes, cultures were washed twice and incubated overnight in media stock. After 24 hours, supernatants and lysates were collected to measure LDH activity. LDH activity was measured by the reduction of NAD, which was utilized in the stoichiometric conversion of a tetrazolium dye using a kit (Sigma TOX-7). Supernatants were removed from the wells and centrifuged before LDH measurements. The adherent cells were lysed to obtain total LDH. […]

[4] = guinea pig brain membrane preparation (Table 29)
[5] = NMDA 300 μM + 10 μM glycine, astrocyte-coated rat neurons, GM/NB + B-27 fed, 21 hour incubation
[6] = NMDA 300 μM + 10 μM glycine, poly-lysine-coated rat neurons, GM/NB + B-27 fed, 40 hour incubation
[7] = NMDA 300 uM + 50 uM glycine, astrocyte-coated rat neurons, GM/NB + B-27 fed, 24 hour incubation
[8] = NMDA 300 uM + glycine 50 uM, Plate #4, poly-lysine-coated rat neurons, GM/NB + B-27 fed, 24 hour incubation
[9] = NMDA 300 uM + glycine 50 uM, Plate #5, astrocyte-coated rat neurons, GM fed, 24 hour incubation
[10] = NMDA 300 μM - 21 hr, astrocyte-coated rat neurons, GM/NB + B-27 fed, 21 hour incubation
[11] = NMDA 300 uM - 40 hr, poly-lysine-coated rat neurons, GM/NB + B-27 fed, 40 hour incubation
[12] = NMDA 500 μM + 10 μM glycine, astrocyte-coated rat neurons, GM/NB + B-27 fed, 21 hour incubation
[13] = NMDA 500 uM + 10 uM glycine, poly-lysine-coated rat neurons, GM/NB + B-27 fed, 40 hour incubation
[14] = NMDA 500 μM - 21 hr, astrocyte-coated rat neurons, GM/NB + B-27 fed, 21 hour incubation
[15] = NMDA 500 uM - 40 hr, poly-lysine-coated rat neurons, GM/NB + B-27 fed, 40 hour incubation

SMILES: CC12CC3(N)CC4C1CC1CC2C(N)(C3)C4(C)C1 (centres unmarked) [MDT-9, 1,6-dimethyl-2,4-diaminodiamantane]
- Relative affinity [1]: 0.032
- Ki [1, 4]: 22.5 ± 0.9 µM
- inhibition of the peak amplitude of NMDA evoked currents ([2]; 10 μM): 13.2±9%
- inhibition of the peak amplitude of NMDA evoked currents ([2]; 100 μM): 15.2±4.8%

- Relative affinity [1]: 0.155
- Ki [1, 4]: 4.7 ± 2.4 µM
- EC50 [3]: 15.7 ± 9.1 µM
SMILES: CC12CC3C4CC5(C)CC3C(C1)C(N)(C5)C4C2 [MDT-51, 4,9-dimethyl-1-aminodiamantane]

SMILES: CN[C@H](CC(=O)O)C(=O)O [NMDA]
- Ki ([1]; standard compounds at the NMDA site (Table 27)): 596 µM
- % (Control Wash = 100) [3, 5]: 144%
- Secreted LDH (Avg) [3, 5]: 0.44
- Secreted/(total + secreted) (Avg) [3, 5]: 11.95
- Total LDH (Avg) [3, 5]: 3.25
- % (Control Wash = 100) [3, 6]: 116%
- Secreted LDH (Avg) [3, 6]: 0.39
- Secreted/(total + secreted) (Avg) [3, 6]: 13.33
- Total LDH (Avg) [3, 6]: 2.56
- % (Control Wash = 100) [3, 7]: 271%
- Secreted LDH (Avg) [3, 7]: 0.76
- Secreted/(total + secreted) (Avg) [3, 7]: 19.61
- Total LDH (Avg) [3, 7]: 3.10
- % (Control Wash = 100) [3, 8]: 163%
- Secreted LDH (Avg) [3, 8]: 0.69
- Secreted/(total + secreted) (Avg) [3, 8]: 17.79
- Total LDH (Avg) [3, 8]: 3.19
- % (Control Wash = 100) [3, 9]: 109%
- Secreted LDH (Avg) [3, 9]: 0.20
- Secreted/(total + secreted) (Avg) [3, 9]: 6.37
- Total LDH (Avg) [3, 9]: 2.90
- % (Control Wash = 100) [3, 10]: 166%
- Secreted LDH (Avg) [3, 10]: 0.52
- Secreted/(total + secreted) (Avg) [3, 10]: 13.82
- Total LDH (Avg) [3, 10]: 3.22
- % (Control Wash = 100) [3, 11]: 127%
- Secreted LDH (Avg) [3, 11]: 0.45
- Secreted/(total + secreted) (Avg) [3, 11]: 14.55
- Total LDH (Avg) [3, 11]: 2.61
- % (Control Wash = 100) [3, 12]: 139%
- Secreted LDH (Avg) [3, 12]: 0.51
- Secreted/(total + secreted) (Avg) [3, 12]: 11.56
- Total LDH (Avg) [3, 12]: 3.91
- % (Control Wash = 100) [3, 13]: 114%
- Secreted LDH (Avg) [3, 13]: 0.44
- Secreted/(total + secreted) (Avg) [3, 13]: 13.07
- Total LDH (Avg) [3, 13]: 2.92
- % (Control Wash = 100) [3, 14]: 147%
- Secreted LDH (Avg) [3, 14]: 0.51
- Secreted/(total + secreted) (Avg) [3, 14]: 12.23
- Total LDH (Avg) [3, 14]: 3.65
- % (Control Wash = 100) [3, 15]: 125%
- Secreted LDH (Avg) [3, 15]: 0.48
- Secreted/(total + secreted) (Avg) [3, 15]: 14.35
- Total LDH (Avg) [3, 15]: 2.91

- Relative affinity [1]: 0.045
- Ki [1, 4]: 13.4 ± 5.1 µM
- EC50 [3]: 34.3 ± 11.3 µM
SMILES: CC12CC3CC4C5CC(N)(CC41)CC2C5C3 [MDT-24, 1-methyl-4-aminodiamantane]

- Relative affinity [1]: 0.021
- Ki [1, 4]: 34.6 ± 3.7 µM
SMILES: NC12CC3C4CC5CC3C(C1)C(C5)C4C2 [MDT-3]
- inhibition of the peak amplitude of NMDA evoked currents ([2]; 10 μM): did not produce inhibition
- inhibition of the peak amplitude of NMDA evoked currents ([2]; 100 μM): did not produce inhibition

- Relative affinity [1]: 0.143
- Ki [1, 4]: 5.1 ± 0.7 µM
- EC50 [3]: 28.4 ± 12.8 µM
SMILES: CC12CC3CC4C1CC1CC2C(N)(C3)C4(C)C1 (centres unmarked) [MDT-43, 1,6-dimethyl-2-aminodiamantane]
